One assay addresses Rho kinase 2 (Homo sapiens, UniProt O75116). Description: In vitro Rho kinase inhibitory activity assay (ADP-Glo kit, Myelin Basic Protein substrate). Type of assay: biochemical. To be noted: 10 μM ATP, 25° C., read-out: ROCK2 inhibitory activity (Ki, range of activity). Here is the method:
(§1) The effectiveness of compounds of the present invention to inhibit Rho kinase activity can be determined in a 10 μl assay containing 40 mM Tris pH7.5, 20 mM MgCl2 0.1 mg/ml BSA, 50 μM DTT and 2.5 μM peptide substrate (Myelin Basic Protein) using an ADP-Glo kit (Promega). Compounds were dissolved in DMSO such that the final concentration of DMSO was 1% in the assay. All reactions/incubations are performed at 25° C. Compound (2 ul) and either Rho kinase 1 or 2 (4 μl) were mixed and incubated for 30 mins. Reactions were initiated by addition of ATP (4 μl) such that the final concentration of ATP in the assay was 10 μM. After a 1 hour incubation 10 μl of ADP-Glo Reagent was added and after a further 45 minute incubation 20 ul of Kinase Detection Buffer was added and the mixture incubated for a further 30 minutes. The luminescent signal was measured on a luminometer. […] Compounds were tested in dose-response format and the inhibition of kinase activity was calculated at each concentration of compound. To determine the IC50 (concentration of compound required to inhibit 50% of the enzyme activity) data were fit to a plot of % inhibition vs Log10 compound concentration using a sigmoidal fit with a variable slope and fixing the maximum to 100% and the minimum to 0%. To determine the Ki values the Cheng-Prusoff equation was utilized (Ki=IC50/(1+[S]/Km).
A general note: ADP-Glo turns the ADP formed in a reaction into a luminescent signal.

The target in the next assay is Rho kinase 1 (Homo sapiens, UniProt Q13464). Described as above. The note with it: 10 μM ATP, 25° C., read-out: ROCK1 inhibitory activity (Ki, range of activity). The format is biochemical. As to the method: as §1
Chain of Rho kinase 1 (Q13464 whole entry): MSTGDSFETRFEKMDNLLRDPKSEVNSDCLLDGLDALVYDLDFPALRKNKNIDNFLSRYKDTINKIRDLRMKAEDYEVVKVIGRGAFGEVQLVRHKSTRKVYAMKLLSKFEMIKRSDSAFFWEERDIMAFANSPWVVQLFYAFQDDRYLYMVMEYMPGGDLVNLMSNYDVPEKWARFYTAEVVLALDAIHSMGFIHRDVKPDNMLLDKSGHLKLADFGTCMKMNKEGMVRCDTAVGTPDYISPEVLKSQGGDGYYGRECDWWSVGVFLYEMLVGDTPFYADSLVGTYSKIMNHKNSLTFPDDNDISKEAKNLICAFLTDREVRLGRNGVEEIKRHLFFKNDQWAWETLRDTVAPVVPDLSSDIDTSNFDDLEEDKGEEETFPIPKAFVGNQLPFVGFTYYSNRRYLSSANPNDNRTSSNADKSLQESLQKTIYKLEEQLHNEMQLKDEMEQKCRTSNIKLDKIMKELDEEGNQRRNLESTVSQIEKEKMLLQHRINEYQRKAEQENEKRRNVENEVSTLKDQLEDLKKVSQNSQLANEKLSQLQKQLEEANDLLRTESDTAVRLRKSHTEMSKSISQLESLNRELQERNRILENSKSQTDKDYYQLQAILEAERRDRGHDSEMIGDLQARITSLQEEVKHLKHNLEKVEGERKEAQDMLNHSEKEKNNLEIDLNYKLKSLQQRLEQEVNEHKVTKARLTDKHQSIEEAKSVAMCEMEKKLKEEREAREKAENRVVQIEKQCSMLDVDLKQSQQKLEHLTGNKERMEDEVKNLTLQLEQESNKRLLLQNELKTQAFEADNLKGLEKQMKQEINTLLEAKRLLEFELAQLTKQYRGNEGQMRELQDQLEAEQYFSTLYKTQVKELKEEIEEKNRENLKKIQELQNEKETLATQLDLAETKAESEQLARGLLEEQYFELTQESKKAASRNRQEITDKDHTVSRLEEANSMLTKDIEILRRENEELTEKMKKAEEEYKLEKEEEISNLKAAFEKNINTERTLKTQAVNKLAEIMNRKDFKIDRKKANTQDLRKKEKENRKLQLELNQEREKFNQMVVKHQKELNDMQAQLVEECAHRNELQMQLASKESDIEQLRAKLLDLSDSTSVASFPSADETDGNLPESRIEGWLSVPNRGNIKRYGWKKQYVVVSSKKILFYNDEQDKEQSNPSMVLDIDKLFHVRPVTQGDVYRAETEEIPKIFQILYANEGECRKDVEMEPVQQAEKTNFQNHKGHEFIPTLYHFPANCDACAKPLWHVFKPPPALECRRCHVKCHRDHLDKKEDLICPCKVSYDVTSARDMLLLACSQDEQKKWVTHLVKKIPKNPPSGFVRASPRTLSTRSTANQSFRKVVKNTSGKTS

As usually defined, the Ki is the dissociation constant of the complex between target and ligand, obtained from inhibition or displacement.

Chain of Rho kinase 2 (O75116 whole entry): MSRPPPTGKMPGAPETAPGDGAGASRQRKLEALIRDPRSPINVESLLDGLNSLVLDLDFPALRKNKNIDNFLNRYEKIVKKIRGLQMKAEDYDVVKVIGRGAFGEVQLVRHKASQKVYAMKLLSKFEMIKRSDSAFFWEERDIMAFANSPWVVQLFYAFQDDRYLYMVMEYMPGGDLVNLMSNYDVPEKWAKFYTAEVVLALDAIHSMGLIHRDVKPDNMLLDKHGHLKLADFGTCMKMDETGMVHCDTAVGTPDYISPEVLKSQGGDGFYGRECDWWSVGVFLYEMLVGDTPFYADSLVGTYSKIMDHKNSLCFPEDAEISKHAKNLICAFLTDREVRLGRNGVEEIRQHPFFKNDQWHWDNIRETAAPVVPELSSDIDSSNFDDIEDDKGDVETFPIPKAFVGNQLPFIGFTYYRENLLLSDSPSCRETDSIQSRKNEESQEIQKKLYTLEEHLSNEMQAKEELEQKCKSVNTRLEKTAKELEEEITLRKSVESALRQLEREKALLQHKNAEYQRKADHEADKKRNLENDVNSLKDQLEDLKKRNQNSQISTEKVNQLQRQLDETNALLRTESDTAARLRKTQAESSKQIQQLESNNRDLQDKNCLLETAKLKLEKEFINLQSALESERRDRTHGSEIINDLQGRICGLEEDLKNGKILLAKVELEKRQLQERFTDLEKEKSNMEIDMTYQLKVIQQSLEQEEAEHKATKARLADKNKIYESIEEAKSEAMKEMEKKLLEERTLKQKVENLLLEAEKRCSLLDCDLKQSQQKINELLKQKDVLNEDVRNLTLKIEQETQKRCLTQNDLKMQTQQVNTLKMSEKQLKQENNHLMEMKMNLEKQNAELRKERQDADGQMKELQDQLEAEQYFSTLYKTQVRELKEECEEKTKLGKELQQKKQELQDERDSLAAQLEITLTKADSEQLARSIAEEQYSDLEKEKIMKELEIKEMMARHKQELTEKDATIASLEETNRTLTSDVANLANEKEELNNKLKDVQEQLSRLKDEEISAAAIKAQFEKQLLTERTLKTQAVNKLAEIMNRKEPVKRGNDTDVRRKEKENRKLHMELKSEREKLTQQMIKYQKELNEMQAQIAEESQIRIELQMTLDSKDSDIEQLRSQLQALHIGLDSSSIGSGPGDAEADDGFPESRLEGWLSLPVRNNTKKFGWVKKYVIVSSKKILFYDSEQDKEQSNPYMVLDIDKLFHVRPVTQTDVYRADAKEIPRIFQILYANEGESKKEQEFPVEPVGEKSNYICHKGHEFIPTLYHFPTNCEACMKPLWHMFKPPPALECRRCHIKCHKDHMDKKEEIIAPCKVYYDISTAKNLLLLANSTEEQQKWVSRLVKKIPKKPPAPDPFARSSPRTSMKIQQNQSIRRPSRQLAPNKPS

For the compound `CC1=C(C(=O)Nc2ccc3cnccc3c2)C(C2COc3ccccc3O2)n2nc(CO)cc2N1` (single isomer, unassigned) [Example 72C, 7-(2,3-dihydrobenzo[b][1,4]dioxin-2-yl)-2-(hydroxymethyl)-N-(isoquinolin-6-yl)-5-methyl-4,7-dihydropyrazolo[1,5-a]pyrimidine-6-carboxamide], the Ki on Rho kinase 2 and on Rho kinase 1 was 50 to 500 nM each time.
For the compound `CCOC(=O)c1cc2n(n1)C(c1ccc(C(F)F)c(F)c1)C(C(=O)Nc1ccc3cnccc3c1)=C(C)N2` (centres unmarked) [Example 115, ethyl 7-(4-(difluoromethyl)-3-fluorophenyl)-6-(isoquinolin-6-ylcarbamoyl)-5-methyl-4,7-dihydropyrazolo[1,5-a]pyrimidine-2-carboxylate], the Ki on Rho kinase 2 and on Rho kinase 1 was under 50 nM each time.
Turning to `CC1=C(C(=O)Nc2ccc3cnccc3c2)C(c2ccc(C(F)(F)F)c(F)c2)n2nc(CNC(=O)CCN3CCCCC3)cc2N1` (single isomer, unassigned) [Example 138B, 7-(3-Fluoro-4-(trifluoromethyl)phenyl)-N-(isoquinolin-6-yl)-5-methyl-2-((3-(piperidin-1-yl)propanamido)methyl)-4,7-dihydropyrazolo[1,5-a]pyrimidine-6-carboxamide], the inhibitory constant (Ki) on Rho kinase 2 and on Rho kinase 1 was over 500 nM each time.
Regarding `COCc1cc2n(n1)C(c1ccc(C(F)(F)F)cc1)C(C(=O)Nc1ccc3[nH]ncc3c1)=C(C)N2` (centres unmarked) [Example 35, N-(1H-indazol-5-yl)-2-(methoxymethyl)-5-methyl-7-(4-(trifluoromethyl)phenyl)-4,7-dihydropyrazolo[1,5-a]pyrimidine-6-carboxamide], the inhibition constant (Ki) at Rho kinase 2 and at Rho kinase 1 was under 50 nM in each case.
As for `CC1=C(C(=O)Nc2ccc3[nH]ncc3c2)C(c2ccc(Cl)nc2)n2nc(CO)cc2N1` (centres unmarked) [Example 70, 7-(6-chloropyridin-3-yl)-2-(hydroxymethyl)-N-(1H-indazol-5-yl)-5-methyl-4,7-dihydropyrazolo[1,5-a]pyrimidine-6-carboxamide], the Ki on Rho kinase 2 and at Rho kinase 1 was under 50 nM in each case.
As for `CC1=C(C(=O)Nc2ccc3[nH]ncc3c2)C(c2ccc(C(F)(F)F)cc2)n2nnnc2N1` (single isomer, unassigned) [Example 27B, N-(1H-indazol-5-yl)-5-methyl-7-(4-(trifluoromethyl)phenyl)-4,7-dihydrotetrazolo[1,5-a]pyrimidine-6-carboxamide], the Ki at Rho kinase 2 and on Rho kinase 1 was 50 to 500 nM in each case.
Take `CC1=C(C(=O)Nc2ccc3[nH]ncc3c2)C(c2ccc(F)cc2)n2nc(C#N)cc2N1` (centres unmarked) [Example 31, 2-cyano-7-(4-fluorophenyl)-N-(1H-indazol-5-yl)-5-methyl-4,7-dihydropyrazolo[1,5-a]pyrimidine-6-carboxamide]: the Ki on Rho kinase 2 and at Rho kinase 1 was under 50 nM in each case.
`CC1=C(C(=O)Nc2ccc3[nH]ncc3c2)C(c2ccc(F)cc2)n2nc(CO)cc2N1` (single isomer, unassigned) [Example 71B, 7-(4-fluorophenyl)-2-(hydroxymethyl)-N-(1H-indazol-5-yl)-5-methyl-4,7-dihydropyrazolo[1,5-a]pyrimidine-6-carboxamide]: the Ki on Rho kinase 2 and at Rho kinase 1 was over 500 nM throughout.
In the case of `CCOC(=O)c1cc2n(n1)C(c1ccc(Cl)cc1F)C(C(=O)Nc1ccc3[nH]ncc3c1)=C(C)N2` (single isomer, unassigned) [Example 7B, ethyl 6-((1H-indazol-5-yl)carbamoyl)-7-(4-chloro-2-fluorophenyl)-5-methyl-4,7-dihydropyrazolo[1,5-a]pyrimidine-2-carboxylate], the Ki on Rho kinase 2 and on Rho kinase 1 was under 50 nM throughout.
Consider `CC1=C(C(=O)Nc2ccc3cnccc3c2)C(c2ccc(C(F)(F)F)c(F)c2)n2nc(CCN(C)C)cc2N1` (centres unmarked) [Example 37, 2-(2-(dimethylamino)ethyl)-7-(3-fluoro-4-(trifluoromethyl)phenyl)-N-(isoquinolin-6-yl)-5-methyl-4,7-dihydropyrazolo[1,5-a]pyrimidine-6-carboxamide], for which the Ki at Rho kinase 2 and at Rho kinase 1 was under 50 nM each time.
With `CC1=C(C(=O)Nc2ccc3cnccc3c2)C(c2ccc(Br)cc2)n2nc(CO)cc2N1` (single isomer, unassigned) [Example 61A, 7-(4-bromophenyl)-2-(hydroxymethyl)-N-(isoquinolin-6-yl)-5-methyl-4,7-dihydropyrazolo[1,5-a]pyrimidine-6-carboxamide], the Ki on Rho kinase 2 and on Rho kinase 1 was under 50 nM throughout.
On to `O=C(Nc1ccc2cnccc2c1)C1=C(C2CC2)Nc2cc(CO)nn2C1c1ccc(C(F)(F)F)c(F)c1` (centres unmarked) [Example 118, 5-cyclopropyl-7-(3-fluoro-4-(trifluoromethyl)phenyl)-2-(hydroxymethyl)-N-(isoquinolin-6-yl)-4,7-dihydropyrazolo[1,5-a]pyrimidine-6-carboxamide], for which the Ki on Rho kinase 2 and at Rho kinase 1 was under 50 nM each time.
Turning to `COCc1cc2n(n1)C(c1ccc3cc[nH]c3c1)C(C(=O)Nc1ccc3cnccc3c1)=C(C)N2` (centres unmarked) [Example 38, 7-(1H-indol-6-yl)-N-(isoquinolin-6-yl)-2-(methoxymethyl)-5-methyl-4,7-dihydropyrazolo[1,5-a]pyrimidine-6-carboxamide], the Ki at Rho kinase 2 and on Rho kinase 1 was under 50 nM each time.
On to `CC1=C(C(=O)Nc2ccc3cnccc3c2)C(C2Cc3ccccc3C2)n2nc(CN(C)C)cc2N1` (centres unmarked) [Example 124, 7-(2,3-dihydro-1H-inden-2-yl)-2-((dimethylamino)methyl)-N-(isoquinolin-6-yl)-5-methyl-4,7-dihydropyrazolo[1,5-a]pyrimidine-6-carboxamide], for which the Ki at Rho kinase 2 and at Rho kinase 1 was under 50 nM each time.
For the compound `CC1=C(C(=O)Nc2ccc3cnccc3c2)C(c2ccc(C(F)(F)F)c(F)c2)n2nc(C(=O)NCCC(=O)N3CCCC3)cc2N1` (centres unmarked) [Example 127, 7-(3-fluoro-4-(trifluoromethyl)phenyl)-N6-(isoquinolin-6-yl)-5-methyl-N2-(3-oxo-3-(pyrrolidin-1-yl)propyl)-4,7-dihydropyrazolo[1,5-a]pyrimidine-2,6-dicarboxamide], the inhibitory constant (Ki) at Rho kinase 2 and on Rho kinase 1 was under 50 nM in each case.
Regarding `CC1=C(C(=O)Nc2ccc3cnccc3c2)C(c2ccc(C(F)(F)F)c(F)c2)n2nc(C(=O)N(C)C)cc2N1` (centres unmarked) [Example 126, 7-(3-fluoro-4-(trifluoromethyl)phenyl)-N6-(isoquinolin-6-yl)-N2,N2,5-trimethyl-4,7-dihydropyrazolo[1,5-a]pyrimidine-2,6-dicarboxamide], the Ki at Rho kinase 2 and on Rho kinase 1 was under 50 nM each time.
For `CC1=C(C(=O)Nc2ccc3[nH]ncc3c2)C(c2ccc(C(F)(F)F)c(F)c2)n2nnnc2N1` (single isomer, unassigned) [Example 25B, 7-(3-fluoro-4-(trifluoromethyl)phenyl)-N-(1H-indazol-5-yl)-5-methyl-4,7-dihydrotetrazolo[1,5-a]pyrimidine-6-carboxamide], the Ki at Rho kinase 2 and at Rho kinase 1 was 50 to 500 nM throughout.
As for `CC1=C(C(=O)Nc2ccc3cnccc3c2)C(c2ccc(C(F)(F)F)c(F)c2)n2nc(C(=O)NCCN3CCCCC3)cc2N1` (single isomer, unassigned) [77A], the Ki on Rho kinase 2 and on Rho kinase 1 was over 500 nM in each case.
`COCCN(C)Cc1cc2n(n1)C(c1ccc(C(F)(F)F)c(F)c1)C(C(=O)Nc1ccc3cnccc3c1)=C(C)N2` (centres unmarked) [Example 98, 7-(3-fluoro-4-(trifluoromethyl)phenyl)-N-(isoquinolin-6-yl)-2-(((2-methoxyethyl)(methyl)amino)methyl)-5-methyl-4,7-dihydropyrazolo[1,5-a]pyrimidine-6-carboxamide]: the Ki on Rho kinase 2 and on Rho kinase 1 was under 50 nM each time.
With `CC1=C(C(=O)Nc2ccc3[nH]ncc3c2)C(c2ccc(C)cc2)n2nc(C(=O)O)cc2N1` (centres unmarked) [Example 74, 6-((1H-indazol-5-yl)carbamoyl)-5-methyl-7-(p-tolyl)-4,7-dihydropyrazolo[1,5-a]pyrimidine-2-carboxylic acid], the Ki on Rho kinase 2 and on Rho kinase 1 was under 50 nM each time.
`CC1=C(C(=O)Nc2ccc3cnccc3c2)C(c2ccc(C(F)(F)F)c(F)c2)n2nc(CN3CCN(C)CC3)cc2N1` (single isomer, unassigned) [Example 96A, 7-(3-fluoro-4-(trifluoromethyl)phenyl)-N-(isoquinolin-6-yl)-5-methyl-2-((4-methylpiperazin-1-yl)methyl)-4,7-dihydropyrazolo[1,5-a]pyrimidine-6-carboxamide]: the Ki at Rho kinase 2 and at Rho kinase 1 was 50 to 500 nM in each case.
Consider `CC1=C(C(=O)Nc2ccc3cnccc3c2)C(c2ccc(C(F)(F)F)c(F)c2)n2nc(CN3CCCCC3)cc2N1` (single isomer, unassigned) [Example 97A, 7-(3-fluoro-4-(trifluoromethyl)phenyl)-N-(isoquinolin-6-yl)-5-methyl-2-(piperidin-1-ylmethyl)-4,7-dihydropyrazolo[1,5-a]pyrimidine-6-carboxamide], for which the Ki on Rho kinase 2 and on Rho kinase 1 was 50 to 500 nM each time.

The values above are taken from US10584128B2, “Bicyclic dihydropyrimidine-carboxamide derivatives as Rho-Kinase inhibitors” (CHIESI FARMACEUTICI S.p.A., priority 2016, dated 2020).
